Data on 24 compounds can be found in US20080234262A1 (Wyeth, priority 2007, published 2008).

SMILES strings stand for the structures.

The target in one experiment is PI3K (Homo sapiens, UniProt P42336). In words: Fluorescence polarization assay for PI3K.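 Also: PI3K kinase reaction on PIP2 with ATP, 30-60 min, product sensed by GST-GRP with red probe in fluorescence polarization (mP), controls without enzyme and at zero time.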 The experiment is classed as biochemical. To be noted: PI3Kα; read-out: PI3Kα IC50. Background: Fluorescence polarisation rises when a labelled molecule tumbles more slowly, as on binding a larger partner.
Chain of PI3K (P42336 whole entry): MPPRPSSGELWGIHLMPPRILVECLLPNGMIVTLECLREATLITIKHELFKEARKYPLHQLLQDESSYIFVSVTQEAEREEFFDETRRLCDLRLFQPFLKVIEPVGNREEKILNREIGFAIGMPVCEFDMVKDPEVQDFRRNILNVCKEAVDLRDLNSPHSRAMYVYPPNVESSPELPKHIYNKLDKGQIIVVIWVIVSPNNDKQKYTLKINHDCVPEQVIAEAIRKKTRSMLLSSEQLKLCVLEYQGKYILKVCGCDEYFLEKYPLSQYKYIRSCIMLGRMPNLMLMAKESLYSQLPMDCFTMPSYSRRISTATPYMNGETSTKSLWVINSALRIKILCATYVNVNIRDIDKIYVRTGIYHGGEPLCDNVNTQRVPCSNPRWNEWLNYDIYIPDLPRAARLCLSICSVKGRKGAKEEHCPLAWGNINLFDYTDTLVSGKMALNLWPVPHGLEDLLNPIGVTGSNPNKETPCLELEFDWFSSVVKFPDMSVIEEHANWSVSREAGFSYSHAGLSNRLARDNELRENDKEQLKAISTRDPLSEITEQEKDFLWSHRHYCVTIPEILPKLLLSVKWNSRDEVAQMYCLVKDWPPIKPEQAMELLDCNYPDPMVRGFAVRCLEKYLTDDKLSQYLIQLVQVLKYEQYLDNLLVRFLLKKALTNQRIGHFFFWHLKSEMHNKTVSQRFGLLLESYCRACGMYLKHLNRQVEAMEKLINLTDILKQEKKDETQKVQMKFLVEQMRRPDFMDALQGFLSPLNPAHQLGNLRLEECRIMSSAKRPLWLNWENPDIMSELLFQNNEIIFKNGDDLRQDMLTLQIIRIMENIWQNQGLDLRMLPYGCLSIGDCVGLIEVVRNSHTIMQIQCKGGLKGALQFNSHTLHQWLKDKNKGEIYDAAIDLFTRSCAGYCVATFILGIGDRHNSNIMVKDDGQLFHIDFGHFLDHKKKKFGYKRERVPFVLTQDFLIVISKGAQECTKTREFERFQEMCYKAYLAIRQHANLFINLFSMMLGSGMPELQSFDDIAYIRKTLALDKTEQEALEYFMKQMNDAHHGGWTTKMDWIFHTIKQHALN
Chain of PI3K (P27986 whole entry partner): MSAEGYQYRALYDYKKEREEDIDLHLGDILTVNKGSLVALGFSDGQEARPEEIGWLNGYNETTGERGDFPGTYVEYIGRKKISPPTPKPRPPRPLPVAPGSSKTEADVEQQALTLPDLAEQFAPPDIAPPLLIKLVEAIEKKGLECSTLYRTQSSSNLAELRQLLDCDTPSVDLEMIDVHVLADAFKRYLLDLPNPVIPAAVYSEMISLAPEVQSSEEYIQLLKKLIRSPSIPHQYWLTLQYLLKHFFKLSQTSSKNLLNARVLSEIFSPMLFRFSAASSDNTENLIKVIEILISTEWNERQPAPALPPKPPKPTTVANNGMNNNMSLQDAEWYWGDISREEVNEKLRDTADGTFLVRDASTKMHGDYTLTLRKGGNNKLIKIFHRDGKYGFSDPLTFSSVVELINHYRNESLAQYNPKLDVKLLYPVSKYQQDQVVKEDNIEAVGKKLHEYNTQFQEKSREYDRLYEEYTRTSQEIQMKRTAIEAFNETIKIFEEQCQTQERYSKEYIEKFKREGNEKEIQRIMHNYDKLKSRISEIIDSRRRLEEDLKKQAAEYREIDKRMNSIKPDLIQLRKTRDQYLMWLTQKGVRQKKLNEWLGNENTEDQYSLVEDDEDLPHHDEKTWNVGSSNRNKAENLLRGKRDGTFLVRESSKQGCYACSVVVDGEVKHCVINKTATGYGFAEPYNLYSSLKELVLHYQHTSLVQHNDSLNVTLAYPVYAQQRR
The test system of another experiment is prostate line LNCap. The experiment is described as follows: In vitro cell culture growth assay (MTS), LNCap.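 Also: viable cell density read by absorbance at 490 nm, growth expressed as percent of vehicle-treated cells on the same plate.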 The experiment is classed as cell-based, human. Particulars: Homo sapiens, LNCaP, 72 h, LNCap cells, three days after drug treatment.
For the next experiment, the system named is breast line MDA468. The experiment is described as follows: In vitro cell culture growth assay (MTS), MDA468. The experiment is classed as cell-based, human. Particulars: Homo sapiens, 72 h, MDA468 cells, three days after drug treatment. Put shortly: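 Steps: plate cells; add inhibitors the next day; incubate 3 days; add MTS dye, which viable cells convert metabolically; measure absorbance at 490 nm; calculate percent of control growth relative to vehicle-treated cells in the same plate.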

On to `C/C=C/C(=O)N1CCC(n2ncc3c(N4CCOCC4)nc(-c4ccc(NC(=O)NC)cc4)nc32)CC1` [Compound 756, 1-[4-(1-{1-[(2E)-but-2-enoyl]piperidin-4-yl}-4-morpholin-4-yl-1H-pyrazolo[3,4-d]pyrimidin-6-yl)phenyl]-3-methylurea], for which the values for the IC50 at PI3K, in the experiment on prostate line LNCap and with breast line MDA468 were 174 nM, 500 nM and 500 nM, respectively.

On to `CNC(=O)Nc1ccc(-c2nc(N3CCOCC3)c3cnn(C4CCN(C(=O)CC(=O)OC)CC4)c3n2)cc1` [Compound 757, methyl 3-[4-(6-{4-[(methylcarbamoyl)amino]phenyl}-4-morpholin-4-yl-1H-pyrazolo[3,4-d]pyrimidin-1-yl)piperidin-1-yl]-3-oxopropanoate], for which the values for the IC50 at PI3K, in the experiment on prostate line LNCap and in the experiment with breast line MDA468 were 124 nM, 2000 nM and 1100 nM, respectively.

`C=CC(=O)N1CCC(n2ncc3c(N4CCOCC4)nc(-c4ccc(NC(=O)NC)cc4)nc32)CC1` [Compound 758, 1-{4-[1-(1-acryloylpiperidin-4-yl)-4-morpholin-4-yl-1H-pyrazolo[3,4-d]pyrimidin-6-yl]phenyl}-3-methylurea]: the IC50 (commonly the concentration that gives 50% inhibition) at PI3K came out at 98 nM; in the experiment on prostate line LNCap, 370 nM; in the experiment with breast line MDA468 it was 300 nM.

Turning to `CNC(=O)Nc1ccc(-c2nc(N3CCOCC3)c3cnn(C4CCN(S(C)(=O)=O)CC4)c3n2)cc1` [Compound 759, 1-methyl-3-(4-{1-[1-(methylsulfonyl)piperidin-4-yl]-4-morpholin-4-yl-1H-pyrazolo[3,4-d]pyrimidin-6-yl}phenyl)urea], the IC50 came out at 78 nM on PI3K, 400 nM with prostate line LNCap and 480 nM in the experiment with breast line MDA468.

For the compound `CNC(=O)Nc1ccc(-c2nc(N3CCOCC3)c3cnn(C4CCN(C(=S)NC)CC4)c3n2)cc1` [Compound 760, N-methyl-4-(6-{4-[(methylcarbamoyl)amino]phenyl}-4-morpholin-4-yl-1H-pyrazolo[3,4-d]pyrimidin-1-yl)piperidine-1-carbothioamide], the IC50 turned out to be 42 nM on PI3K, 170 nM in the experiment on prostate line LNCap and 50 nM in the experiment on breast line MDA468.

With `CNC(=O)Nc1ccc(-c2nc(N3CCOCC3)c3cnn(C4CCN(C(=O)SC)CC4)c3n2)cc1` [Compound 761, S-methyl 4-(6-{4-[(methylcarbamoyl)amino]phenyl}-4-morpholin-4-yl-1H-pyrazolo[3,4-d]pyrimidin-1-yl)piperidine-1-carbothioate], the IC50 on PI3K amounted to 72 nM; in the experiment on prostate line LNCap it was 50 nM; with breast line MDA468, 120 nM.

For `CCSC(=O)N1CCC(n2ncc3c(N4CCOCC4)nc(-c4ccc(NC(=O)NC)cc4)nc32)CC1` [Compound 762, S-ethyl 4-(6-{4-[(methylcarbamoyl)amino]phenyl}-4-morpholin-4-yl-1H-pyrazolo[3,4-d]pyrimidin-1-yl)piperidine-1-carbothioate], the IC50 came out at 87 nM at PI3K, 50 nM with prostate line LNCap and 170 nM in the experiment with breast line MDA468.

Regarding `CNC(=O)Nc1ccc(-c2nc(N3CCOCC3)c3cnn(C4CCN(C(=O)C(F)(F)F)CC4)c3n2)cc1` [Compound 763, 1-methyl-3-(4-{4-morpholin-4-yl-1-[1-(trifluoroacetyl)piperidin-4-yl]-1H-pyrazolo[3,4-d]pyrimidin-6-yl}phenyl)urea], the values for the IC50 on PI3K, in the experiment with prostate line LNCap and in the experiment on breast line MDA468 were 154 nM, 270 nM and 500 nM, respectively.

With `CCNC(=O)Nc1ccc(-c2nc(N3CCOCC3)c3cnn(C4CCN(C(=O)OC(C)(C)C)CC4)c3n2)cc1` [Compound 764, tert-butyl 4-(6-{4-[(ethylcarbamoyl)amino]phenyl}-4-morpholin-4-yl-1H-pyrazolo[3,4-d]pyrimidin-1-yl)piperidine-1-carboxylate], the IC50 on PI3K is 738 nM; in the experiment on prostate line LNCap, 115 nM; in the experiment on breast line MDA468, 370 nM.

`CC(C)(C)OC(=O)N1CCC(n2ncc3c(N4CCOCC4)nc(-c4ccc(NC(=O)NCCO)cc4)nc32)CC1` [Compound 766, tert-butyl 4-[6-(4-{[(2-hydroxyethyl)carbamoyl]amino}phenyl)-4-morpholin-4-yl-1H-pyrazolo[3,4-d]pyrimidin-1-yl]piperidine-1-carboxylate]: the IC50 at PI3K stood at 364 nM; in the experiment on prostate line LNCap, 180 nM; with breast line MDA468 it was 410 nM.

Consider `CC(C)(C)OC(=O)N1CCC(n2ncc3c(N4CCOCC4)nc(-c4ccc(NC(=O)Nc5ccccc5)cc4)nc32)CC1` [Compound 768, tert-butyl 4-(6-{4-[(anilinocarbonyl)amino]phenyl}-4-morpholin-4-yl-1H-pyrazolo[3,4-d]pyrimidin-1-yl)piperidine-1-carboxylate], for which the half-maximal inhibitory concentration (IC50) came to 74 nM at PI3K, 205 nM with prostate line LNCap and 710 nM in the experiment on breast line MDA468.

Take `CC(C)(C)OC(=O)N1CCC(n2ncc3c(N4CCOCC4)nc(-c4ccc(NC(=O)Nc5ccccn5)cc4)nc32)CC1` [Compound 769, tert-butyl 4-(4-morpholin-4-yl-6-{4-[(pyridin-2-ylcarbamoyl)amino]phenyl}-1H-pyrazolo[3,4-d]pyrimidin-1-yl)piperidine-1-carboxylate]: the IC50 on PI3K is 2190 nM; in the experiment with prostate line LNCap, 3500 nM; in the experiment on breast line MDA468 it was 7000 nM.

As to `CC(C)(C)OC(=O)N1CCC(n2ncc3c(N4CCOCC4)nc(-c4ccc(NC(=O)Nc5cccnc5)cc4)nc32)CC1` [Compound 770, tert-butyl 4-(4-morpholin-4-yl-6-{4-[(pyridin-3-ylcarbamoyl)amino]phenyl}-1H-pyrazolo[3,4-d]pyrimidin-1-yl)piperidine-1-carboxylate], the IC50 on PI3K was determined as 56 nM; with prostate line LNCap, 105 nM; in the experiment on breast line MDA468, 260 nM.

In the case of `CC(C)(C)OC(=O)N1CCC(n2ncc3c(N4CCOCC4)nc(-c4ccc(NC(=O)Nc5ccncc5)cc4)nc32)CC1` [Compound 771, tert-butyl 4-(4-morpholin-4-yl-6-{4-[(pyridin-4-ylcarbamoyl)amino]phenyl}-1H-pyrazolo[3,4-d]pyrimidin-1-yl)piperidine-1-carboxylate], the IC50 on PI3K worked out at 59 nM; with prostate line LNCap, 70 nM; in the experiment with breast line MDA468 it was 190 nM.

On to `COC(=O)Nc1ccc(-c2nc(N3CCOCC3)c3cnn(C4CCN(C(=O)OC(C)(C)C)CC4)c3n2)cc1` [Compound 772, tert-butyl 4-(6-{4-[(methoxycarbonyl)amino]phenyl}-4-morpholin-4-yl-1H-pyrazolo[3,4-d]pyrimidin-1-yl)piperidine-1-carboxylate], for which the IC50 at PI3K came to 5030 nM; with prostate line LNCap, 1300 nM; in the experiment with breast line MDA468 it was 5500 nM.

As for `CCNC(=O)Nc1ccc(-c2nc(N3CCOCC3)c3cnn(C4CCNCC4)c3n2)cc1` [Compound 773], the results for the IC50 at PI3K, in the experiment on prostate line LNCap and with breast line MDA468 were 306 nM, 620 nM and 390 nM, respectively.

In the case of `O=C(NCCF)Nc1ccc(-c2nc(N3CCOCC3)c3cnn(C4CCNCC4)c3n2)cc1` [Compound 774, 1-(2-fluoroethyl)-3-[4-(4-morpholin-4-yl-1-piperidin-4-yl-1H-pyrazolo[3,4-d]pyrimidin-6-yl)phenyl]urea], the IC50 at PI3K stood at 436 nM; in the experiment with prostate line LNCap it was 2300 nM; in the experiment with breast line MDA468, 1050 nM.

For `O=C(NCCO)Nc1ccc(-c2nc(N3CCOCC3)c3cnn(C4CCNCC4)c3n2)cc1` [Compound 775, 1-(2-hydroxyethyl)-3-[4-(4-morpholin-4-yl-1-piperidin-4-yl-1H-pyrazolo[3,4-d]pyrimidin-6-yl)phenyl]urea], the results for the IC50 on PI3K, in the experiment with prostate line LNCap and with breast line MDA468 were 170 nM, 26000 nM and 12000 nM, respectively.

For the compound `O=C(Nc1ccc(-c2nc(N3CCOCC3)c3cnn(C4CCNCC4)c3n2)cc1)NC1CC1` [Compound 776, 1-cyclopropyl-3-[4-(4-morpholin-4-yl-1-piperidin-4-yl-1H-pyrazolo[3,4-d]pyrimidin-6-yl)phenyl]urea], the IC50 on PI3K was 442 nM; in the experiment on prostate line LNCap it was 1100 nM; with breast line MDA468, 1100 nM.

Take `O=C(Nc1ccccc1)Nc1ccc(-c2nc(N3CCOCC3)c3cnn(C4CCNCC4)c3n2)cc1` [Compound 777, 1-[4-(4-morpholin-4-yl-1-piperidin-4-yl-1H-pyrazolo[3,4-d]pyrimidin-6-yl)phenyl]-3-phenylurea]: the IC50 on PI3K is 19 nM; in the experiment on prostate line LNCap, 130 nM; with breast line MDA468 it was 140 nM.

Regarding `O=C(Nc1ccc(-c2nc(N3CCOCC3)c3cnn(C4CCNCC4)c3n2)cc1)Nc1ccccn1` [Compound 778, 1-[4-(4-morpholin-4-yl-1-piperidin-4-yl-1H-pyrazolo[3,4-d]pyrimidin-6-yl)phenyl]-3-pyridin-2-ylurea], the IC50 on PI3K came to 154 nM; in the experiment on prostate line LNCap, 1300 nM; with breast line MDA468, 1600 nM.

As to `O=C(Nc1ccc(-c2nc(N3CCOCC3)c3cnn(C4CCNCC4)c3n2)cc1)Nc1cccnc1` [Compound 779, 1-[4-(4-morpholin-4-yl-1-piperidin-4-yl-1H-pyrazolo[3,4-d]pyrimidin-6-yl)phenyl]-3-pyridin-3-ylurea], the IC50 on PI3K worked out at 26 nM; with prostate line LNCap, 2800 nM; in the experiment on breast line MDA468, 900 nM.

Turning to `O=C(Nc1ccncc1)Nc1ccc(-c2nc(N3CCOCC3)c3cnn(C4CCNCC4)c3n2)cc1` [Compound 780, 1-[4-(4-morpholin-4-yl-1-piperidin-4-yl-1H-pyrazolo[3,4-d]pyrimidin-6-yl)phenyl]-3-pyridin-4-ylurea], the IC50 was determined as 16 nM at PI3K, 2200 nM in the experiment on prostate line LNCap and 1500 nM in the experiment on breast line MDA468.

In the case of `COC(=O)Nc1ccc(-c2nc(N3CCOCC3)c3cnn(C4CCN(CC(F)(F)F)CC4)c3n2)cc1` [Compound 781, methyl (4-{4-morpholin-4-yl-1-[1-(2,2,2-trifluoroethyl)piperidin-4-yl]-1H-pyrazolo[3,4-d]pyrimidin-6-yl}phenyl)carbamate], the IC50 was 1740 nM at PI3K, 1800 nM in the experiment with prostate line LNCap and 7900 nM in the experiment on breast line MDA468.
